Legend:
[1] = molecular target: T1, APEH-1Dl (Dicentrarchus labrax, UniProt A0A8C4H3D3); test: exopeptidase (aminopeptidase) assay, pNA release; type: biochemical; conditions: 15 °C
T1 construct: native, purified from red blood cells; 80 kDa monomer, about 300 kDa homotetramer; N-terminus 1AAESQPATEE; deposited cDNA covers only 208 aa of the C-terminal part
Excerpt: exopeptidase (aminopeptidase) assay, pNA release on APEH-1Dl

[2] = molecular target: T1, APEH-1Dl; test: exopeptidase assay, fluorogenic AMC release; type: biochemical; conditions: 15 °C
Excerpt: exopeptidase assay, fluorogenic AMC release on APEH-1Dl

T1 sequence (A0A8C4H3D3 entry or part of it): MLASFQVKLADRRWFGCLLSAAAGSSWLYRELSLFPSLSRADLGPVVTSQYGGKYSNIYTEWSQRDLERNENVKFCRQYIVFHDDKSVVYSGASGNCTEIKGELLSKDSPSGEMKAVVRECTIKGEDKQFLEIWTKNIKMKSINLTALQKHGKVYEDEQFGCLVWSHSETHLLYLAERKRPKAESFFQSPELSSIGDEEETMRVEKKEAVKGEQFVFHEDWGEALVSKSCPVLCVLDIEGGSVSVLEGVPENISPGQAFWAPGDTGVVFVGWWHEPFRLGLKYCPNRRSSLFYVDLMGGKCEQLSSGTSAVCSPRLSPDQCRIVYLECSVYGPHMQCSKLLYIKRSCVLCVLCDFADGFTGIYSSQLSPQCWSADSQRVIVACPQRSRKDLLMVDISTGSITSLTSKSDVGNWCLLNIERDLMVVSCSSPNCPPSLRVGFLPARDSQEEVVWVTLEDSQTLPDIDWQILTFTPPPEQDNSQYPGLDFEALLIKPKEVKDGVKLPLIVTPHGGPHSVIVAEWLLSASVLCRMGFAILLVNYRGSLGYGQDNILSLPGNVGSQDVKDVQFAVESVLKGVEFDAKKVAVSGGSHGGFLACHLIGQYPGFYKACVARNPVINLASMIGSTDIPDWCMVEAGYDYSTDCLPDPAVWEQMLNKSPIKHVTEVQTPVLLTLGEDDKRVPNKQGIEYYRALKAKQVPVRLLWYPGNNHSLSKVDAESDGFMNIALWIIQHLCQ

| Compound | Km [1] [µM] | Km [2] [µM] |
| --- | --- | --- |
| CC(=O)N[C@@H](C)C(=O)Nc1ccc([N+](=O)[O-])cc1 [Ac-Ala-pNA] | 28 | – |
| CSCC[C@H](NC(C)=O)C(=O)Nc1ccc2c(C)cc(=O)oc2c1 [Ac-Met-AMC] | – | 52 |
